Source: patent EP4799624A2 (priority 2021, dated 2023)
≈ marks a conversion by molar mass, not a printed value. Read-outs that look alike come from different tables or passages of the source.

Assays:
[1] = values compared in Example 2; cited from earlier work
SARS-CoV-2 [2] = assay: microbe, parasite or virus in culture
SARS-CoV-2 [3] = settings: for activity in the HeLa-ACE2 cell-based SARS-CoV-2 assay: 35 ActivPred compounds tested; for Nh (Hill) coefficient: dose curves fitted with the four parameter Hill Equation
Ebola VLP entry = settings: cited from earlier work
SARS-CoV-2 [4] = settings: same methods as used in this study; cited from earlier work
SARS-CoV-2 [5] = settings: Day 4, cited from earlier work
[6] = range for all doses (10-200 mg), human plasma, cited from earlier work
SARS-CoV-2/WA1 = format: cell-based, SARS-CoV-2 isolate USA-WA1/2020; settings: Severe acute respiratory syndrome coronavirus 2, HeLa-ACE2, read-out: SARS-CoV-2 IC50 value
[7] = single oral doses 1-200 mg; cited from earlier work
SARS-CoV-2 [8] = settings: cited from earlier work
[9] = in vivo, cited from earlier work
COVID-19 = settings: ReFRAME study A00473; cited from earlier work
A/WSN/33 = assay: Influenza antiviral assay (IF-based) in A549 cells; format: cell-based, H1N1 influenza A virus; settings: Influenza A virus, A549, 24 h
[10] = rat, in vivo
in vivo = settings: rat, po, 1000 mg/kg
[11] = for adverse reactions / clinical signs: PO 50 and 250 mg/kg, single and 5 days, female 129S1 mice; for Mean: mean of 3 mice (± SD in Table 16); for AUC∞: extrapolated to ∞
[12] = ReFRAME study A00511; cited from earlier work
[13] = rat and monkey studies; cited from earlier work
[14] = human liver slices and microsomes; cited from earlier work
[15] = Severe acute respiratory syndrome coronavirus 2, HeLa-ACE2, 24 h
[16] = lung, 250 mg/kg PO five consecutive days (Group 2, MD)
[17] = plasma, 50 mg/kg PO five consecutive days (Group 1, MD)
[18] = plasma, 50 mg/kg PO single dose (Group 1, SD)
[19] = plasma, 50 mg/kg PO single dose (Group 1, SD), 50 mg/kg
[20] = plasma, 250 mg/kg PO five consecutive days (Group 2, MD)
[21] = plasma, 250 mg/kg PO single dose (Group 2, SD)

For `CCC(CC)COC(=O)[C@H](C)N[P@](=O)(OC[C@H]1O[C@@](C#N)(c2ccc3c(N)ncnn23)[C@H](O)[C@@H]1O)Oc1ccccc1` [Remdesivir, reference compound], the “t ½” value [1] is listed as 1 h, the EC50 (SARS-CoV-2 [2]; [15]) is listed as 130 nM and the “increase in EC50 from MOI=1 to MOI=26” value (SARS-CoV-2 [3]) is listed as 2.7 fold.
In the case of `COc1ccc(C[C@H](N)C(=O)N[C@H]2[C@@H](O)[C@H](n3cnc4c(N(C)C)ncnc43)O[C@@H]2CO)cc1` [puromycin, reference compound], the EC50 (SARS-CoV-2 [2]; Severe acute respiratory syndrome coronavirus 2, HeLa-ACE2, […], average ± sem of 5 independent experiments) is reported as 547 ± 27 nM.
In the case of `O=C(c1ccc(OCCN2CCCCC2)cc1)c1c(-c2ccc(O)cc2)sc2cc(O)ccc12` [raloxifene], the SI (Ebola VLP entry; Ebola VLP entry) is given as over 10, the IC50 (Ebola VLP entry; speculated active compounds, read-out: IC50, block of Ebola VLP entry in vitro) is given as under 10 µM and the EC50 (SARS-CoV-2 [4]) is given as 4.13 µM.
For `CNCc1ccc(-c2cc(-c3nc(-c4ccc(S(=O)(=O)C(C)C)cc4)cnc3N)on2)cc1` [Berzosertib, reference compound], the “activity in the HeLa-ACE2 cell-based SARS-CoV-2 assay” value (from here on “activity”) (SARS-CoV-2 [3]) was “demonstrated activity” and the “Nh (Hill) coefficient” value (SARS-CoV-2 [3]) was 1.485.
In the case of `Cc1cccc(/C=N/Nc2cc(N3CCOCC3)nc(OCCc3ccccn3)n2)c1` [apilimod, reference compound], the Emax (SARS-CoV-2 [2]; Severe acute respiratory syndrome coronavirus 2, HeLa-ACE2, read-out: maximal efficacy) is reported as 85 to 90% and the “increase in EC50 from MOI=1 to MOI=26” value (SARS-CoV-2 [3]) is reported as 3.7 fold.
For `Nc1ncnc2c1nc(Cl)n2[C@@H]1O[C@@H]2COP(=O)(O)O[C@H]2[C@H]1O` [tocladesine], the “activity” value (SARS-CoV-2 [3]) was “demonstrated activity”.
With `Cc1c2c(nn1C)CSCc1cc(n(C)n1)CSc1cc(c3ccccc3c1)OCCCc1c(C(=O)O)n(C)c3c-2c(Cl)ccc13` [AZD-5991] the “activity” value (SARS-CoV-2 [3]) was “demonstrated activity”.
For `CC(C)(C)[C@H](NC(=O)C(F)(F)F)C(=O)N1C[C@H]2[C@@H]([C@H]1C(=O)N[C@H](C#N)C[C@@H]1CCNC1=O)C2(C)C` [Nirmatrelvir], the “log reduction in viral load” value (SARS-CoV-2 [5]; 300 mg/kg) is listed as 1.4 log, the “reduction in viral load” value (SARS-CoV-2 [5]; 1000 mg/kg BID) is listed as 1.91 log10 CCID50/mL and the “log reduction in viral load” value (SARS-CoV-2 [5]; 1000 mg/kg) is listed as 1.9 log.
For `Cc1c(-c2ccc(O)cc2)n(Cc2ccc(OCCN3CCCCC3)cc2)c2ccc(O)cc12` [Pipendoxifene, 2-(4-hydroxyphenyl)-3-methyl-1-[[4-(2-piperidin-1-ylethoxy)phenyl]methyl]indol-5-ol], the “mean terminal t1/2” value [6] is listed as 15.8 to 27.3 h, the “mean terminal t1/2” value ([6]; listed as pipendoxifene) is listed as 15.8 to 27.3 h and the “t ½” value [1] is listed as 15.8 to 27.3 h. It also gave an IC50 (SARS-CoV-2/WA1) of 0.328 µg/mL (≈ 0.718 µM), an EC90 (SARS-CoV-2 [2]; Severe acute respiratory syndrome coronavirus 2, HeLa-ACE2) of 14.3 µM and an EC10 (SARS-CoV-2 [2]; [15]) of 5.01 µM. It also gave an EC50 (SARS-CoV-2 [2]; [15]) of under 9600 nM, an EC90 (SARS-CoV-2 [2]; Severe acute respiratory syndrome coronavirus 2, HeLa-ACE2, calculated with the Hill equation (Equation I) from nH 4 and EC10) of 15 µM and an EC90 (SARS-CoV-2 [2]; Severe acute respiratory syndrome coronavirus 2, HeLa-ACE2, read-out: EC90 range, range from Equations I and II) of 14.3 to 15 µM. The tolerability [7] was “well tolerated with only mild transient adverse events observed at all doses”, the “result in SARS-CoV-2/HeLa-ACE2 HCI assay - % infected cells” value (SARS-CoV-2 [8]) was “INACTIVE” and the dose safely tolerated ([9]; human) was “up to 200 mg/daily”. The dose safely tolerated ([9]; mouse) was “at least 20 mg/kg/day”, the “result in COVID-19 Cytopathic Effect (CPE) Assay” value (COVID-19) was “INACTIVE” and the IC50 (A/WSN/33) was 7.49 µM. For the same compound, the EC50 (SARS-CoV-2 [3]) was 8.24 µM, the “activity” value (SARS-CoV-2 [3]) was “demonstrated activity” and the “Nh (Hill) coefficient” value (SARS-CoV-2 [3]) was 4. For the same compound, the EC50 (SARS-CoV-2 [3]; listed as pipendoxifene) was 8.42 µM, the Cmax [10] was 311 1 42 ng/mL and the “Lung C24h exceeding the IC50 value” [10] was 5.4 fold. The “plasma t1/2” value ([10]; po) was 4.71 to 6.06 h, the “AUClast ± SE” value ([10]; po, 250 mg/kg) was 3515 ± 980 ng·h/mL and the “AUClast ± SE” value ([10]; po, 750 mg/kg) was 5260 ± 1970 ng·h/mL. The concentration at 6 h (in vivo) was 501 ng/mL, the Average plasma concentration ([11]; Group 2, MD (multiple, 5-day, dose) 250 mg/kg oral, 8.0 hr) was 575 ± 194 ng/mL and the “adverse reactions / clinical signs” value [11] was “no adverse events at doses up to 250mg/kg”. The “adverse reactions / clinical signs” value ([11]; listed as pipendoxifene) was “No adverse reactions were observed”, the “Conc.” value ([11]; lung tissue, individual mice, 50 mg/kg PO single dose, 8.0 hr, 50 mg/kg, 480 min) was 7840 ng/g and the “Mean” value ([11]; lung tissue, 50 mg/kg PO five consecutive days, 8.0 hr, 50 mg/kg, 480 min) was 5613 ± 1602 ng/g. For the same compound, the “Mean” value ([11]; lung tissue, 50 mg/kg PO single dose, 4.0 hr, 50 mg/kg, 240 min) was 8310 ± 630 ng/g, the “Mean” value ([11]; lung tissue, 250 mg/kg PO five consecutive days, 4.0 hr, 250 mg/kg, 240 min) was 39000 ± 15321 ng/g and the “Mean” value ([11]; lung tissue, 250 mg/kg PO single dose, 8.0 hr, 250 mg/kg, 480 min) was 24733 ± 17321 ng/g. For the same compound, the “tmax” value ([11]; lung, 50 mg/kg PO five consecutive days (Group 1, MD)) was 8.0 h, the “MRTlast” value [11, 16] was 7.22 h and the “tmax” value [11, 16] was 4.0 h. The “tmax” value ([11]; lung, 250 mg/kg PO single dose (Group 2, SD)) was 8.0 h, the “plasma t1/2” value ([11]; mouse, in vivo, po) was 2.36 to 3.96 h and the “MRTlast” value [11, 17] was 7.10 h. The “t1/2” value [11, 17] was 2.58 h, the “tmax” value [11, 17] was 6.0 h and the “AUClast (hr·ng/mL) ± SE” value ([11]; plasma, 50 mg/kg PO five consecutive days (Group 1, MD), 50 mg/kg) was 1391 ± 55 ng·h/mL. For the same compound, the “AUC∞” value [11, 17] was 1396 ng·h/mL, the “MRTlast” value [11, 18] was 6.95 h and the “t1/2” value [11, 18] was 2.36 h. For the same compound, the “tmax” value [11, 18] was 2.0 h, the “AUClast (hr·ng/mL) ± SE” value [11, 19] was 1600 ± 115 ng·h/mL and the “Cmax (ng/mL) ± SE” value [11, 19] was 179 ± 21 ng/mL. For the same compound, the “AUC∞” value [11, 18] was 1602 ng·h/mL, the “t1/2” value [11, 20] was 2.52 h and the “tmax” value [11, 20] was 6.0 h. The “AUClast (hr·ng/mL) ± SE” value ([11]; plasma, 250 mg/kg PO five consecutive days (Group 2, MD), 250 mg/kg) was 11628 ± 1191 ng·h/mL, the “AUC∞” value [11, 20] was 11664 ng·h/mL and the “MRTlast” value [11, 21] was 8.86 h. For the same compound, the “t1/2” value [11, 21] was 3.96 h, the “tmax” value [11, 21] was 6.0 h and the “Cmax (ng/mL) ± SE” value ([11]; plasma, 250 mg/kg PO single dose (Group 2, SD), 250 mg/kg) was 1020 ± 693 ng/mL. The “AUC∞” value [11, 21] was 10461 ng·h/mL, the “Mean” value ([11]; plasma, 50 mg/kg PO five consecutive days, 1.0 hr, 50 mg/kg, 60 min) was 56.0 ± 20.7 ng/mL and the “Mean” value ([11]; plasma, 50 mg/kg PO single dose, 2.0 hr, 50 mg/kg, 120 min) was 179 ± 37 ng/mL. The “Mean” value ([11]; plasma, 250 mg/kg PO five consecutive days, 8.0 hr, 250 mg/kg, 480 min) was 575 ± 194 ng/mL, the “Mean” value ([11]; plasma, 250 mg/kg PO single dose, 6.0 hr, 250 mg/kg, 360 min) was 1020 ± 1200 ng/mL and the “result in SARS CoV-2 CPE Cytotoxicity Assay” value [12] was “INACTIVE”. For the same compound, the primary metabolite [13] was “primarily metabolized to an indole glucuronide” and the primary human metabolite [14] was “the same indole glucuronide as found in the preclinical models”.
In the case of `Cc1c(-c2ccc(O)cc2)n(Cc2ccc(OCCN3CCCCCC3)cc2)c2ccc(O)cc12` [Bazedoxifene, reference compound], the dose safely tolerated ([9]; human) is given as 20 mg/day and the dose safely tolerated ([9]; rat) is given as 100 mg/kg/day.
For `COc1cc(Cl)cc(C(C)Nc2cc(N3CCNCC3)ccc2S(C)(=O)=O)c1OC.Cl` (stereo not drawn) [PRX-07034], the “activity” value (SARS-CoV-2 [3]) was “demonstrated activity”.
